Test results as given in patent US10273290B2, “Hydrocarbon double-stapled stabilized HIV-1 GP41 heptad repeat domain peptides” (DANA-FARBER CANCER INSTITUTE, INC., priority 2009, dated 2019).
Bridge positions count the residues as written; N and C are the ends. Square brackets hold non-standard residues; d marks the D form. Peptide text beside a SMILES is read from it. S5 = C=CCCC[C@](C)(N)C(=O)O; Nle = CCCC[C@H](N)C(=O)O

Experiments:
[1] = Circular dichroism, α-helical content; assay type: physicochemical; details: comparative CD spectra, 20-mer residues 626-645
Summary of the method: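 Far-UV CD spectra recorded at 20° C, 190-260 nm, 0.1 cm path, 10 accumulations. Percent α-helicity from mean residue ellipticity at 222 nm: 100×[θ]222/max[θ]222, with max[θ]222=−40,000×[1−(2.5/number of residues)]. Secondary-structure fractions also estimated by CDNN curve-fitting.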

[2] = test system: HIV syncytia formation; test: HIV syncytial formation assay; assay type: cell-based, HIV-1
Protocol: Functional assays can be used to evaluate the activity of the antibodies produced. In culture, multinucleated giant cells or “syncytia” form as a result of direct cell-cell fusion between HIV-1-infected and uninfected CD4-positive cells. In the syncytia formation assay, an indicator cell line expressing the CD4 receptor, and a fusogenic cell line that lacks the CD4 receptor but contains HIV-1 proteins on the surface, fuse to generate 70-100 multinucleated giant cells in culture within 48 h. Syncytia are then counted using an inverted microscope. The ability of structured gp41 peptides or antibodies targeted thereto to inhibit syncytia formation in a dose-responsive fashion is used as a functional measure of fusion inhibition, for which IC50s can be determined and compared with peptides T20 and T649, or established neutralization antibodies (Brenner, T. J., et al. The Lancet, 1991. 337(8748): p. 1001-1005; Madani, N., et al., Journal of Virology, 2007. 81(2): p. 532-538).
The truncated Stabilized Alpha Helix (SAH)-gp41 compound, SAH-gp41(626-645)(A), was successfully synthesized in high yield.

[3] = test system: HIV-1 HXBc2; test: HIV infectivity assay, HXBc2 strain; assay type: cell-based; details: compared to T20
Excerpt: Also the direct inhibitory activity of modified polypeptides and the antibodies targeted thereto can be quantified based upon their capacity to directly block HIV infection of CD4-positive and CCR5-expressing canine thymus cells. Recombinant HIV-1 viruses (eg. HXBc2, YU2, and additional strains available through the NIH AIDS Research and Reference Reagent Program) expressing firefly luciferase and containing the indicated envelope glycoproteins can be used to infect Cf2Th-CD4-CCR5/CXCR4 cells in the presence of serially diluted modified HIV-1 gp41 polypeptides or antibodies targeted thereto After 48 hours, the cells are lysed and luciferase activity is quantified (Si, Z. H., M. Cayabyab, and J. Sodroski, Journal of Virology, 2001. 75(9): p. 4208-4218 Si, Z. H., et al., PNAS, 2004. 101(14): p. 5036-5041). The identical experiment is performed with the amphotropic murine leukemia virus (AMLV), to monitor for any nonspecific effects of the modified polypeptides or antibodies. Similar control assays may be performed with unmodified or non-HIV polypeptides of the invention or control antibodies and are known in the art. […]

CCCC[C@H](NC(C)=O)C(=O)N[C@H](C(=O)N[C@@H](Cc1c[nH]c2ccccc12)C(=O)N[C@@]1(C)CCCC=CCCC[C@@](C)(C(=O)N[C@@H](CCC(=O)O)C(=O)N[C@H](C(=O)N[C@@H](CC(N)=O)C(=O)N[C@@H](CC(N)=O)C(=O)N[C@@H](Cc2ccc(O)cc2)C(=O)N[C@H](C(=O)N[C@@H](CO)C(=O)N[C@@H](CC(C)C)C(=O)N[C@H](C(=O)N[C@@H](Cc2c[nH]cn2)C(=O)N[C@@H](CO)C(=O)N[C@@H](CC(C)C)C(N)=O)[C@@H](C)CC)[C@@H](C)O)[C@@H](C)CC)NC(=O)[C@H](CC(=O)O)NC(=O)[C@H](Cc2c[nH]c3ccccc23)NC(=O)[C@H](CCC(=O)O)NC1=O)[C@@H](C)O [SAH-gp41(626-645)(A)] (Ac-[Nle]TW[S5]EWD[S5]EINNYTSLIHSL-NH2; staple 4-8; N-terminus assumed)
α-helical content [1]: 48%
inhibitory activity in syncytial formation assay, in words [2]: markedly enhanced inhibitory activity
anti-HXBc2 activity, in words [3]: significant anti-HXBc2 activity
